The values below come from patent publication US20190054097A1, “COMPOSITIONS TARGETING SENESCENT CELLS AND THE USES THEREOF” (BioVentures, LLC, priority 2016, published 2019).

Common to all, as to type: cell-based
The subject of test [1] is Normal WI38 (NSC). The test is described as follows: Viability of normal WI38 cells, PI staining and flow cytometry, 72 hours. The protocol: (§1) Normal WI38 (NSC) and IR-induced senescent WI38 cells (IR-SC) were incubated with vehicle or increasing concentrations of compounds of Formula (I) or Formula (II) for 72 hours. The cells were digested with 0.25% trypsin and 1 mM EDTA, and harvested in PBS containing 2% FBS. After incubation with propidium iodide (PI, 100 ng/ml) in PBS at room temperature for 1 minute, cells were centrifuged at 1,200 rpm for 6 minutes to remove PI and then resuspended in PBS containing 2% FBS for analysis using a flow cytometer. Viable cells (PI− cells) were analyzed by flow cytometry at a constant flow rate to count the number of cells and calculated as a percentage of control cells treated with vehicle. Table 1 depicts the EC50 values of the compounds of Formula (I) and compounds of Formula (II) against normal WI38 and IR-induced senescent WI38.

Test [2] relates to IR-induced senescent WI38 cells (IR-SC). The test is described as follows: Viability of IR-induced senescent WI38 cells, PI staining and flow cytometry, 72 hours. As to conditions: for EC50: IR-induced senescent WI38 cells, 72 hours, viable PI- cells as percentage of vehicle control; for Ratio NSC/SC: ratio of WI38 EC50 in normal cells to EC50 in IR-induced senescent cells. As to the method: as §1
(Flow cytometry measures light scatter and fluorescence of single cells or particles in a stream.)

Test [3] has as its system NCI-H146 cancer cells. The test is described as follows: Cancer cell viability by MTS, 72 hours. As to the method: (§2) RS4; 11 and NCI-H146 cancer cells were incubated with vehicle or increasing concentrations of compounds of Formula (I) and Formula (II). At 72 hours post-treatment cell viability was measured by MTS and EC50 was calculated as a percentage of control cells treated with vehicle. Table 1 depicts the EC50 values of compounds of Formula (I) and Formula (II) against RS4; 11 and NCI-H146.

Test [4] has as its system RS4; 11 cancer cells. Description: Cancer cell viability by MTS, 72 hours. As to conditions: 11 cells. The protocol:
as §2

Where [5] appears, read: Homo sapiens, WI-38, viable PI- cells as percentage of vehicle control.
Where [6] appears, read: viable PI- cells as percentage of vehicle control.

Read-outs that look alike come from different tables or passages of the source.

The EC50 is the concentration giving half of the maximal effect. Higher therefore signals weaker potency. In the case of `CC1(C)CCC(c2ccc(Cl)cc2)=C(CN2CCN(c3ccc(C(=O)NS(=O)(=O)c4ccc(N[C@H](CCN5CCN(C(=O)CCCn6cc(COCCOCCNc7cccc8c7C(=O)N(C7CCC(=O)NC7=O)C8=O)nn6)CC5)CSc5ccccc5)c(S(=O)(=O)C(F)(F)F)c4)cc3)CC2)C1` (stereo partly drawn) [PZ-15227, 4-(4-((4′-chloro-4,4-dimethyl-3,4,5,6-tetrahydro-[1,1′-biphenyl]-2-yl)methyl)piperazin-1-yl)-N-((4-(((2R)-4-(4-(4-(4-((2-(2-((2-(2,6-dioxopiperidin-3-yl)-1,3-dioxoisoindolin-4-yl)amino)ethoxy)ethoxy)methyl)-1H-1,2,3-triazol-1-yl)butanoyl)piperazin-1-yl)-1-(phenylthio)butan-2-yl)amino)-3-((trifluoromethyl)sulfonyl)phenyl)sulfonyl)benzamide], the 50% effective concentration (EC50) in test [1] (setting [5]) is > 10000 nM; in test [2] (Homo sapiens, WI-38), 108 nM; in test [3] (Homo sapiens), 68.9 nM; in test [4] (Homo sapiens) it was 114 nM. Besides, the “Ratio NSC/SC” value in test [2] is >92.

On to `CC(C)(C)OC(=O)N1CCN(CC#Cc2ccc(OCCCc3sc(N4CCc5cccc(C(=O)Nc6nc7ccccc7s6)c5C4)nc3C(=O)O)c(F)c2)CC1` [XZ-13861], for which the EC50 in test [1] (setting [6]) amounted to 32800 nM; in test [2], 3120 nM. In test [2] (FIG. 2A, FIG. 2B, dose dependent), the “Selective inhibition of IR-SC WI38 cells versus normal WI38 cells” value is reported as “selectively inhibits IR-SC WI38 cells but not normal WI38 cells in a dose-dependent manner”.

Consider `Cc1ncsc1-c1ccc(CNC(=O)[C@@H]2C[C@@H](O)CN2C(=O)[C@@H](NC(=O)COCCOCCOCc2cn(CCCC(=O)N3CCN(CC#Cc4ccc(OCCCc5sc(N6CCc7cccc(C(=O)Nc8nc9ccccc9s8)c7C6)nc5C(=O)O)c(F)c4)CC3)nn2)C(C)(C)C)cc1` [XZ-14455, 2-(8-(benzo[d]thiazol-2-ylcarbamoyl)-3,4-dihydroisoquinolin-2(1H)-yl)-5-(3-(2-fluoro-4-(3-(4-(4-(4-((S)-12-((2S,4R)-4-hydroxy-2-((4-(4-methylthiazol-5-14)benzyl)carbamoyl)pyrrolidine-1-carbonyl)-13,13-dimethyl-10-oxo-2,5,8-trioxa-11-azatetradecyl)-1H-1,2,3-triazol-1-yl)butanoyl)piperazin-1-yl)prop-1-yn-1-yl)phenoxy)propyl)thiazole-4-carboxylic acid], for which the EC50 is 5000 nM in test [1] (setting [6]), 1470 nM in test [2], > 2000 nM in test [3] and > 2000 nM in test [4]. Besides, the “Ratio NSC/SC” value in test [2] is given as 3.40.

`CC1(C)CCC(c2ccc(Cl)cc2)=C(CN2CCN(c3ccc(C(=O)NS(=O)(=O)c4ccc(N[C@H](CCN5CCN(C(=O)COCCOCCOCCNc6cccc7c6C(=O)N(C6CCC(=O)NC6=O)C7=O)CC5)CSc5ccccc5)c(S(=O)(=O)C(F)(F)F)c4)cc3)CC2)C1` (stereo partly drawn) [XZ-14510, 4-(4-((4′-chloro-4,4-dimethyl-3,4,5,6-tetrahydro-[1,1′-biphenyl]-2-yl)methyl)piperazin-1-yl)-N-((4-(((2R)-4-(4-(2-(2-(2-(2-((2-(2,6-dioxopiperidin-3-yl)-1,3-dioxoisoindolin-4-yl)amino)ethoxy)ethoxy)ethoxy)acetyl)piperazin-1-yl)-1-(phenylthio)butan-2-yl)amino)-3-((trifluoromethyl)sulfonyl)phenyl)sulfonyl)benzamide]: in test [2], the “Ratio NSC/SC” value is given as >56.

As for `CC1(C)CCC(c2ccc(Cl)cc2)=C(CN2CCN(c3ccc(C(=O)NS(=O)(=O)c4ccc(N[C@H](CCN5CCN(CCOCCOCCOCCNc6cccc7c6C(=O)N(C6CCC(=O)NC6=O)C7=O)CC5)CSc5ccccc5)c(S(=O)(=O)C(F)(F)F)c4)cc3)CC2)C1` (stereo partly drawn) [XZ-15418, 4-(4-((4′-chloro-4,4-dimethyl-3,4,5,6-tetrahydro-[1,1′-biphenyl]-2-yl)methyl)piperazin-1-yl)-N-((4-(((2R)-4-(4-(2-(2-(2-(2-((2-(2,6-dioxopiperidin-3-yl)-1,3-dioxoisoindolin-4-yl)amino)ethoxy)ethoxy)ethoxy)ethyl)piperazin-1-yl)-1-(phenylthio)butan-2-yl)amino)-3-((trifluoromethyl)sulfonyl)phenyl)sulfonyl)benzamide], the EC50 in test [1] (setting [5]) was > 10000 nM; in test [2] (Homo sapiens, WI-38), 172 nM; in test [4] (Homo sapiens), 12.3 nM.
